From article PMC12692147, “Surface Acoustic Waves-Based Molecular Recognition of a Collagen Receptor on Human Erythrocytes” (International Journal of Molecular Sciences, 2025)
“Also recorded” adds a separate entry of the source.

How the values were obtained:
[1] = target: integrins in an immobilized erythrocyte ghost membrane; assay: SAW biosensor binding of disintegrins to immobilized erythrocyte ghosts; design: species or system human; details: for Kd / kon / koff: SAW (sam-X), erythrocyte ghosts immobilized via hydrophobic interactions (CH3-SAM), running buffer PBS pH 7.4, 25 °C, 20 μL/min, 1:1 binding model, experiments in triplicate; for Kd: KD = koff/kon; for kon: slope of kobs vs c, kobs of five channels averaged; for koff: y-intercept of kobs vs c; for KD (range in words): SAW, erythrocyte ghost membrane; for KD (range in words) / phase response on erythrocyte ghosts vs. unspecific binding to GUVs: result in words; for specificity of binding to erythrocyte ghost membrane: authors' conclusion in words; for phase response on erythrocyte ghosts vs. unspecific binding to GUVs: titration with increasing concentrations of disintegrins, GUVs (bovine brain phospholipids) on a parallel channel
Protocol: To detect disintegrin/erythrocyte ghost binding at the molecular level, a surface acoustic wave (SAW) biosensor was used (Figure 1). The machines of SAW instruments use a detection technology resembling a highly sensitive “weight detector”. Binding processes are measured by real mass changes on the surface. Basically, the sensor is a chip, whereby the surface is excited to oscillate acoustically. Acoustic waves are generated in the piezoelectric material and propagate laterally. Response to changes in the surface-bound material and configuration is achieved through a proprietary method that produces a modified oscillation. […] The phase of the wave is shifted on mass changes. A change in amplitude indicates viscoelastic and conformational characteristics. Both effects can be differentiated and detected independently for interaction analysis.
A similar amount of erythrocyte ghosts and GUVs were successfully immobilized on (1) positively poly-L-lysin charged 2D CM-dextran, (2) EDC/NHS-activated, negatively charged 2D CM-dextran, and (3) hydrophobic–CH3-SAM. The positively charged disintegrins were repelled from all charged surfaces; therefore, immobilization via hydrophobic interactions was chosen for the main core of experiments (Figure 2). Disintegrins were diluted in PBS to achieve similar immobilization levels; in a pre-experiment, all ligands were diluted 1:3, and then dilutions were adjusted. Experiments were performed in triplicate, starting with obtustatin, then echistatin, then vice versa. The baseline was stable; at immobilization of GUVs on a chip, a 14° phase shift was detected vs. 13.1° for the erythrocyte ghosts. In this set of experiments, GUVs formed from the phospholipid fraction of the bovine brain were used as a negative control for erythrocyte ghosts.
Based on the 1:1 binding model, a KD value was calculated depending on the fit model applied for the interaction of disintegrins with integrins in the erythrocyte ghosts. Data were obtained from sensor signals after the administration of increasing concentrations of disintegrins using the monomolecular growth model. The observed rate constants (kobs) were determined from the rising phase of the sensor response curves for each analyte concentration and plotted against the corresponding disintegrin concentrations. A linear regression was performed on the dataset according to the equationkobs = kon × c + koff where kon represents the association rate constant, koff is the dissociation rate constant, and c is the concentration of the injected analyte (see Figure 3C,D).
Erythrocyte membranes were obtained by the method of Dodge, Mitchell & Hanahan, as described. To obtain erythrocyte ghosts, after the last wash the RBC pellet was mixed with nine volumes of ice-cold lysis buffer (5 mM sodium phosphate) and stirred for 15 min at 0 °C. Subsequently, the unsealed erythrocyte ghosts were pelleted by centrifugation at 37,000× g for 10 min at 0 °C. After the centrifugation the ghosts were washed with ice-cold lysis buffer until residual hemoglobin was not visible. The RBC ghosts were suspended in about 0.5 volume of PBS and were kept frozen at −30 °C until use.
Biosensor investigations were performed using a sam®-X system Surface Acoustic Wave biosensor supplied by SAW instruments (GmbH, Bonn, Germany), as described before. Gold-coated sensors were incubated in a solution of 11-mercaptoundecanoic acid (10 mM) in ethanol abs. forming a self-assembled monolayer by binding of the sulfur headgroups to the gold surface ([…]). The carboxyl groups were activated with 200 mM N-ethyl-N-(dimethylaminopropyl)-carbodiimide (EDC) and 50 mM N-hydroxysuccinimide (NHS) to bind disintegrins and/or vesicles. An excess of activated unreacted NHS esters was blocked by 1 M ethanolamine (pH 8.5). Running buffer was PBS containing 2.7 mM potassium chloride and 137 mM sodium chloride (pH 7.4 at 25 °C); flow rate was 40/20 μL/min. […]

α1β1 integrin = details: cited from earlier work
Excerpt: (§1) Integrin-mediated binding is important for the metastatic dissemination of different types of cancer cells. […] Obtustatin is one of the shortest disintegrins yet described, containing 41 amino acids. It has a similar pattern of cysteines to the other disintegrin echistatin but with a KTS motif rather than a classic RGD in its active site. […] Echistatin is a 49-amino-acid peptide belonging to the disintegrins family derived from Echis carinatus snake venom. […] Obtustatin, comprising only 41 amino acid residues, is one of the shortest disintegrins characterized to date. It was purified from the venom of the Subcaucasian subspecies of the Levantine viper—Macrovipera ...

αVβ3 integrin = details: cited from earlier work
Excerpt: as §1

[2] = system: platelet aggregation and cellular adhesion; details: background statement; ref [14] (preceding sentence); cited from earlier work
Excerpt: Disintegrins are the large family of anti-adhesive proteins found in viper venom, whose structural and functional complexity contrasts with their small molecular size. Echistatin is a 49-amino-acid peptide belonging to the disintegrins family derived from Echis carinatus snake venom. […] Obtustatin, comprising only 41 amino acid residues, is one of the shortest disintegrins characterized to date. It was purified from the venom of the Subcaucasian subspecies of the Levantine viper—Macrovipera ...

[3] = target: αVβ3 integrin (Homo sapiens) (UniProt P06756); details: cited from earlier work
Sequence of UniProt P06756 (P06756 31-1048, chain 1 of 2): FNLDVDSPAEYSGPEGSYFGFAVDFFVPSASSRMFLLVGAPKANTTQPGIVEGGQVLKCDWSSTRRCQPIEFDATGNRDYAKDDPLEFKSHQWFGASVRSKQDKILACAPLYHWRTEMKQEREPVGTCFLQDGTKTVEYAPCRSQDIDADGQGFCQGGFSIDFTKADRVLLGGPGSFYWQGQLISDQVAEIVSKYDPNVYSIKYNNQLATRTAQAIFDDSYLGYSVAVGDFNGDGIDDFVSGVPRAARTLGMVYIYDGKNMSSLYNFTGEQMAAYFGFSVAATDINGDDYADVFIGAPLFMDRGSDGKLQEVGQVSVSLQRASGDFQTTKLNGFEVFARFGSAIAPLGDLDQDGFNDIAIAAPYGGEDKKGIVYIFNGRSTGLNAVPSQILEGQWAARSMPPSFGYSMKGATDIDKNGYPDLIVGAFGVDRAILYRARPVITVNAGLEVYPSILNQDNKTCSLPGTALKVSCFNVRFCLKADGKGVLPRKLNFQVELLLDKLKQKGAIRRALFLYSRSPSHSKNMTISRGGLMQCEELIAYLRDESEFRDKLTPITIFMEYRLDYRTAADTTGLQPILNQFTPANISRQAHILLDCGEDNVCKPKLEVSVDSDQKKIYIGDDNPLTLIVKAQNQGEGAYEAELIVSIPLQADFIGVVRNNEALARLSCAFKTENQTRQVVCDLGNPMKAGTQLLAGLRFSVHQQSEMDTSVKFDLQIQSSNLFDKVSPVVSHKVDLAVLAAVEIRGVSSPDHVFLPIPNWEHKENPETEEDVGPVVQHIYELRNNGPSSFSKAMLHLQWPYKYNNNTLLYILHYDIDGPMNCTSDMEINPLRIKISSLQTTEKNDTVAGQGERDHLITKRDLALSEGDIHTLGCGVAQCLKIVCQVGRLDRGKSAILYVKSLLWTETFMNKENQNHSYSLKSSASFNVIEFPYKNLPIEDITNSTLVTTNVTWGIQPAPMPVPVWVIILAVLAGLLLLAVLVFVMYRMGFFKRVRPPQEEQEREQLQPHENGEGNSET
Sequence of UniProt P06756 (P05106 27-788, chain 2 of 2, further chain): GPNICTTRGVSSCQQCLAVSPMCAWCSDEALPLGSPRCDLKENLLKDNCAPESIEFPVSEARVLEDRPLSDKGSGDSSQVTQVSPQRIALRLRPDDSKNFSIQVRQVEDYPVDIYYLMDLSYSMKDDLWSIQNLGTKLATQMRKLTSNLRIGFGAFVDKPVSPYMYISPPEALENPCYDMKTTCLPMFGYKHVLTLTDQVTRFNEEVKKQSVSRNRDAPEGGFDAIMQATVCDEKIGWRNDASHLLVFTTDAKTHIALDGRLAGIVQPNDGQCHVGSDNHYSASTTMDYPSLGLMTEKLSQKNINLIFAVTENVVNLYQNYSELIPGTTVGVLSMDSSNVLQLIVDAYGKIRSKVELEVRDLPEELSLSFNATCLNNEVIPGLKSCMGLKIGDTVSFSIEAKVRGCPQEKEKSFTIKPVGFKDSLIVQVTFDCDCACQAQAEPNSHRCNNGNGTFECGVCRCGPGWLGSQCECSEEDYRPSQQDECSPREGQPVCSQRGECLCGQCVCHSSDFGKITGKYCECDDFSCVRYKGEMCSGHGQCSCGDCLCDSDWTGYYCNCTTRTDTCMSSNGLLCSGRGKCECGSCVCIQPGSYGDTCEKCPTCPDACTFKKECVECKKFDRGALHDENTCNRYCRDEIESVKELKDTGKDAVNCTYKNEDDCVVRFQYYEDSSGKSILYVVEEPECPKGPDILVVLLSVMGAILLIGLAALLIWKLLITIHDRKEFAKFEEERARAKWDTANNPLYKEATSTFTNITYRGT

[4] = stated in abstract without reference

Substance | Kd [1] | kon [1] | koff [1] | KD (range in words) [1] | specificity of binding to erythrocyte ghost membrane [1] | phase response on erythrocyte ghosts vs. unspecific binding to GUVs [1] | α1β1 integrin blockade, selectivity (α1β1 integrin; ref [17],[18],[19]) | α1β1 integrin inhibition (α1β1 integrin; [4]) | αVβ3 integrin antagonism (αVβ3 integrin; ref [20],[21],[22]) | αvβ3 integrin inhibition (αVβ3 integrin; [4]) | inhibition of platelet aggregation and cellular adhesion [2] | Ki [3]
CTTGPCCRQCKLKPAGTTCW-----KTS--LTSHYCTGKSCDCPLYPG (disulfide) [Obtustatin] | 232 nM | (5.34 ± 0.9) × 10^3 M^−1 s^−1 | (1.238 ± 0.8) × 10^−3 s^−1 | mid-nanomolar range | specific molecular recognition for both disintegrins, but the higher response for obtustatin; also recorded: specific binding of the obtustatin with the erythrocyte ghost membrane in the 1:1 binding mode | the highest difference is observable | block α1β1 integrin in a highly selective manner | potent, irreversible, and selective inhibitors |  |  |  | 
ECESGPCCRNCKFLKEGTICKR—ARGD-DMDDYCNGKTCDCPRNPHKGPAT (disulfide) [Echistatin] | 2100 nM | (4.22 ± 0.002) × 10^2 M^−1 s^−1 | (8.85 ± 0.03) × 10^−4 s^−1 | low micromolar range | could be evidence of some unspecific binding | remarkably lower |  |  | potent irreversible αVβ3 integrin antagonist | potent, irreversible, and selective inhibitors | highly effective inhibitor of platelet aggregation and cellular adhesion | 
echistatin (from UniProt P17347) |  |  |  |  |  |  |  |  |  |  |  | 0.27 nM
